{"source": "patent US4122184A", "about": "“Benzimidazole insecticides” (priority 1977, dated 1978)", "key": {"[1]": {"tested_on": "Red-Legged Grasshopper Adults", "experiment": "Field trial, contact poison test", "type": "in vivo", "how_it_was_run": "(§1)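 Infested host plants were kept in water-filled bottles with cellucotton around the stem and sprayed with different compound concentrations by atomizer at 10 psi from arm's length. Mortality was read at 24, 48 and 72 h on a 0–9 scale (0 = 0-10%, 9 = 91-100% mortality), averaged per concentration.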"}, "Bean Leaf Beetle": {"tested_on": "Bean Leaf Beetle", "experiment": "Field trial, contact poison test", "type": "in vivo", "how_it_was_run": "as §1"}, "[2]": {"tested_on": "Southern Corn Rootworm Adults", "experiment": "Field trial, contact poison test", "type": "in vivo", "how_it_was_run": "as §1"}, "Picnic Beetle [3]": {"tested_on": "Picnic Beetle", "experiment": "Field trial (first summer), stomach", "type": "in vivo", "settings": "250 ppm", "procedure": "Leaves from the infested plant are treated with different concentrations of the test compounds, either by spraying with a DeVilbiss Special Atomizer (5004) at 10 psi or by dipping the leaves in solutions containing the compound. The leaves are then allowed to air dry.\nAfter the leaves have dryed, they are placed in plastic petri dishes (100 × 25 mm), then the insects are counted out into each dish, five or ten insects per dish depending on the number of insects available. There are one or two replicates and usually two or three rates with each compound. Mortality results are taken at 24, 48 and 72 hours. The rating scale is 0 to 9.\n(§2) During the previous summer similar field trials were conducted employing the same tests as heretofore but with some additional species of insects not included in the later tests. The results listed below are for tests in which an insect mortality was established by a given application route and at a given concentration in a particular test. The same 0 - 9 scoring system is used as is the designation of compounds by alphabetical symbols."}, "Boll Weevil": {"tested_on": "Boll Weevil", "experiment": "Boll Weevil Test", "type": "in vivo, Anthonomus grandis (Coleoptera)", "settings": "48 h", "description": "The procedure is identical to that employed for the Mexican bean beetle and the Southern armyworm, except that 10 adult boll weevils are placed on cotton leaves that have been dipped into formulations of the test compounds. The same rating scale is used."}, "Milkweed Beetle": {"tested_on": "Milkweed Beetle", "experiment": "Field trial (first summer), contact", "type": "in vivo", "settings": "125 ppm", "description": "(§3) Infested plants are placed in 6 oz. prescription bottles filled with water to keep them from wilting. Cellucotton is wrapped around the plant stem and squeezed into the bottle neck to prevent the insects from drowning.\n(§4) A DeVilbiss Special Atomizer (5004) is used at 10 psi to spray the test plant with different concentrations of compounds. The atomizer is held at arm's length to prevent blowing the insects off the host plant. After treating, the bottles are placed on a table covered with brown wrapping paper to catch the dead insects as they drop from the plant. The plants are spaced so the leaves or plants are not touching one another.\n(§5) The results are read at 24, 48, and 72 hours when applicable. The rating scale is 0 to 9 where 0 = 0-10 percent and 9 = 91-100 percent mortality.\nas §2"}, "Picnic Beetle [4]": {"tested_on": "Picnic Beetle", "experiment": "Field trial (first summer), contact", "type": "in vivo", "settings": "250 ppm", "description": "as §3, §4, §5, §2"}, "[5]": {"tested_on": "Southern Corn Rootworm Adults", "experiment": "Field trial, stomach poison test", "type": "in vivo", "design": "key: mortality rating on a 0 to 9 scale", "how_it_was_run": "(§6)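 Leaves from infested plants sprayed (10 psi) or dipped in test compound at several concentrations, air-dried, then five or ten insects placed per dish, one or two replicates. Mortality scored 0 to 9 at 24, 48 and 72 h, averaged per concentration.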"}, "[6]": {"tested_on": "Striped Cucumber Beetle Adults", "experiment": "Field trial, stomach poison test", "type": "in vivo", "design": "key: mortality rating on a 0 to 9 scale", "how_it_was_run": "as §6"}, "Meadow Spittlebug": {"tested_on": "Meadow Spittlebug", "experiment": "Field trial, stomach poison test", "type": "in vivo", "how_it_was_run": "as §6"}, "Aphids - Apple": {"tested_on": "Aphids - Apple", "experiment": "Field trial, stomach poison test", "type": "in vivo", "how_it_was_run": "as §6"}, "Aphids - Sour Gum": {"tested_on": "Aphids - Sour Gum", "experiment": "Field trial, stomach poison test", "type": "in vivo", "how_it_was_run": "as §6"}, "Picnic Beetle [7]": {"tested_on": "Picnic Beetle", "experiment": "Field trial (first summer), topical", "type": "in vivo", "settings": ".078125 μg/μl", "how_it_was_run": "(§7)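 Field trial from the first summer in which 1 µl of test solution holding a set number of micrograms of benzimidazole was applied topically to larvae or adult insects. Mortality at a given route and concentration was scored on a 0–9 scale.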"}, "Confused Flour Beetle": {"tested_on": "Confused Flour Beetle", "experiment": "Field trial (first summer), topical", "type": "in vivo", "settings": ".078125 μg/μl", "how_it_was_run": "as §7"}}, "data": [{"smiles": "O=[N+]([O-])c1cc(C(F)(F)F)cc2nc(C(F)(F)F)[nH]c12", "note": "[A, 2,6-bis(trifluoromethyl)-4-nitrobenzimidazole]", "values": [{"measurement": "average mortality rating", "setting": "[1]; 10 ppm", "result": 3}, {"measurement": "average mortality rating", "setting": "[1]; 25 ppm", "result": 4}, {"measurement": "average mortality rating", "setting": "[1]; 50 ppm", "result": 4}, {"measurement": "average mortality rating", "setting": "Bean Leaf Beetle; 25 ppm", "result": "0 (0-10 percent)"}, {"measurement": "average mortality rating", "setting": "Bean Leaf Beetle; 50 ppm", "result": "0 (0-10 percent)"}, {"measurement": "average mortality rating", "setting": "Bean Leaf Beetle; 100 ppm", "result": "0 (0-10 percent)"}, {"measurement": "average mortality rating", "setting": "[2]; 25 ppm", "result": 4}, {"measurement": "average mortality rating", "setting": "[2]; 50 ppm", "result": 6}, {"measurement": "average mortality rating", "setting": "[2]; 100 ppm", "result": 8}, {"measurement": "insect mortality rating", "setting": "Picnic Beetle [3]", "result": "9 (91-100 percent mortality)"}, {"measurement": "mortality rating", "setting": "Boll Weevil; 5 ppm", "result": 7.5}, {"measurement": "mortality rating", "setting": "Boll Weevil; 10 ppm", "result": 6.7}, {"measurement": "mortality rating", "setting": "Boll Weevil; 25 ppm", "result": 8.8}, {"measurement": "mortality rating", "setting": "Boll Weevil; 50 ppm", "result": 8.5}, {"measurement": "insect mortality rating", "setting": "Milkweed Beetle", "result": "9 (91-100 percent mortality)"}, {"measurement": "insect mortality rating", "setting": "Picnic Beetle [4]", "result": "9 (91-100 percent mortality)"}, {"measurement": "average mortality rating", "setting": "[5]; 25 ppm", "result": 4}, {"measurement": "average mortality rating", "setting": "[5]; 50 ppm", "result": 6}, {"measurement": "average mortality rating", "setting": "[5]; 100 ppm", "result": 7}, {"measurement": "average mortality rating", "setting": "[6]; 10 ppm", "result": 1}, {"measurement": "average mortality rating", "setting": "[6]; 25 ppm", "result": 3}, {"measurement": "average mortality rating", "setting": "[6]; 50 ppm", "result": 6}, {"measurement": "average mortality rating", "setting": "[6]; 100 ppm", "result": 5}, {"measurement": "average mortality rating", "setting": "Meadow Spittlebug; 10 ppm", "result": 2}, {"measurement": "average mortality rating", "setting": "Meadow Spittlebug; 25 ppm", "result": "0 (0-10 percent)"}, {"measurement": "average mortality rating", "setting": "Meadow Spittlebug; 50 ppm", "result": 1}, {"measurement": "average mortality rating", "setting": "Aphids - Apple; 25 ppm", "result": 1}, {"measurement": "average mortality rating", "setting": "Aphids - Apple; 50 ppm", "result": 4}, {"measurement": "average mortality rating", "setting": "Aphids - Apple; 100 ppm", "result": 4}, {"measurement": "average mortality rating", "setting": "Aphids - Sour Gum; 25 ppm", "result": 7}, {"measurement": "average mortality rating", "setting": "Aphids - Sour Gum; 50 ppm", "result": "9 (91-100 percent mortality)"}, {"measurement": "average mortality rating", "setting": "Aphids - Sour Gum; 100 ppm", "result": "9 (91-100 percent mortality)"}, {"measurement": "insect mortality rating", "setting": "Picnic Beetle [7]", "result": "9 (91-100 percent mortality)"}, {"measurement": "insect mortality rating", "setting": "Confused Flour Beetle", "result": "9 (91-100 percent mortality)"}]}]}
